Measured values taken from patent US12655116B2, “Substituted isophthalic acid diamides” (Bayer Aktiengesellschaft, priority 2020, dated 2026).

Columns and labels:
SETVI [1] = test: Pre-emergence herbicidal action against SETVI; type: in vivo, Setaria viridis
In short: (§1)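 Herbicidal effect was assessed 3 weeks after treatment by visual comparison with untreated controls, 100% denoting dead plants. Aqueous WP or EC preparations had been applied at 600 to 800 l/ha with 0.2% wetting agent to the soil covering freshly sown seeds.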

PHBPU [2] = test: Pre-emergence herbicidal action against PHBPU; type: in vivo, Pharbitis purpurea; conditions: dosage 80 g/ha
From the text: Seeds of monocotyledonous and dicotyledonous weed plants and crop plants are laid out in sandy loam soil in wood-fiber pots and covered with soil. The compounds of the invention, formulated in the form of wettable powders (WP) or as emulsion concentrates (EC), are then applied to the surface of the covering soil in the form of an aqueous suspension or emulsion at a water application rate equivalent to 600 to 800 l/ha, with addition of 0.2% wetting agent. After the treatment, the pots are placed in a greenhouse and kept under good growth conditions for the trial plants. The damage to the test plants is scored visually after a test period of 3 weeks by comparison with untreated controls (herbicidal activity in percent (%): 100% activity=the plants have died, 0% activity=like control plants). […] The tables below illustrate, in an illustrative manner, the post-emergence herbicidal action of the compounds of the invention, the herbicidal activity being stated in percent.

VIOTR [3] = test: Pre-emergence herbicidal action against VIOTR; type: in vivo, Viola tricolor
In short: as §1

ECHCG [4] = test: Pre-emergence herbicidal action against ECHCG; type: in vivo, Echinochloa crus-galli; conditions: 80 g/ha
In short: as §1

DIGSA [5] = test: Pre-emergence herbicidal action against DIGSA; type: in vivo, Digitaria sanguinalis
In short: as §1

AMARE [6] = test: Post-emergence herbicidal action against AMARE; type: in vivo, Amaranthus retroflexus; conditions: 20 g/ha, visual assessment about 3 weeks after treatment, 100% = plants have died, 0% = like control plants
In short: (§2)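 Herbicidal effect was scored visually in percent after about 3 weeks in the greenhouse. Plants had been raised in sandy loam and treated post-emergence at the one-leaf stage with formulated compound at 600 to 800 l/ha water plus 0.2% wetting agent.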

AMARE [7] = test: Pre-emergence herbicidal action against AMARE; type: in vivo, Amaranthus retroflexus
In short: as §1

ALOMY [8] = test: Pre-emergence herbicidal action against ALOMY; type: in vivo, Alopecurus myosuroides; conditions: 80 g/ha, pre-emergence, scored visually after 3 weeks vs untreated controls (100% = plants have died, 0% = like control plants)
In short: as §1

MATIN = test: Pre-emergence herbicidal action against MATIN; type: in vivo, Matricaria inodora
In short: as §1

ABUTH [9] = test: Pre-emergence herbicidal action against ABUTH; type: in vivo, Abutilon theophrasti; conditions: for Pre-emergence action against ABUTH (herbicidal activity): 80 g/ha, scored visually after 3 weeks vs untreated controls (100% = plants have died, 0% = like control plants); for Pre-emergence action against ABUTH (herbicidal activity in percent): dosage 20 g/ha, scored visually after 3 weeks vs untreated controls, 100% = plants have died, 0% = like control plants
In short: as §1

PHBPU [10] = test: Post-emergence herbicidal action against PHBPU; type: in vivo, Pharbitis purpurea
In short: as §2

VERPE [11] = test: Pre-emergence herbicidal action against VERPE; type: in vivo, Veronica persica
In short: as §1

VIOTR [12] = test: Post-emergence herbicidal action against VIOTR; type: in vivo, Viola tricolor
In short: as §2

ALOMY [13] = test: Post-emergence herbicidal action against ALOMY; type: in vivo, Alopecurus myosuroides; conditions: dosage 20 g/ha, visual assessment about 3 weeks after treatment vs untreated controls
In short: as §2

ABUTH [14] = test: Post-emergence herbicidal action against ABUTH; type: in vivo, Abutilon theophrasti; conditions: visual assessment about 3 weeks after treatment vs untreated controls
In short: as §2

VERPE [15] = test: Post-emergence herbicidal action against VERPE; type: in vivo, Veronica persica; conditions: 20 g/ha
Experimental: Seeds of monocotyledonous and dicotyledonous weed and crop plants are laid out in sandy loam soil in wood-fiber pots, covered with soil and cultivated in a greenhouse under good growth conditions. 2 to 3 weeks after sowing, the test plants are treated at the one-leaf stage. The compounds of the invention, formulated in the form of wettable powders (WP) or as emulsion concentrates (EC), are then sprayed onto the green parts of the plants in the form of an aqueous suspension or emulsion at a water application rate equivalent to 600 to 800 l/ha, with addition of 0.2% wetting agent. After the test plants have been left to stand in the greenhouse under optimal growth conditions for about 3 weeks, the action of the preparations is assessed visually in comparison to untreated controls (herbicidal action in percent (%): 100% activity=the plants have died, 0% activity=like control plants). […] The tables below illustrate, in an illustrative manner, the post-emergence herbicidal action of the compounds of the invention, the herbicidal activity being stated in percent.

AVEFA = test: Pre-emergence herbicidal action against AVEFA; type: in vivo, Avena fatua; conditions: 80 g/ha, pre-emergence
In short: as §1

ECHCG [16] = test: Post-emergence herbicidal action against ECHCG; type: in vivo, Echinochloa crus-galli
In short: as §2

SETVI [17] = test: Post-emergence herbicidal action against SETVI; type: in vivo, Setaria viridis; conditions: dosage 20 g/ha
In short: as §2

DIGSA [18] = test: Post-emergence herbicidal action against DIGSA; type: in vivo, Digitaria sanguinalis; conditions: 20 g/ha
In short: as §2

[19] = 20 g/ha, scored visually after 3 weeks vs untreated controls, 100% = plants have died, 0% = like control plants
[20] = 80 g/ha, scored visually after 3 weeks vs untreated controls (100% = plants have died, 0% = like control plants)

Structure (SMILES)	Pre-emergence action against PHBPU in % (PHBPU [2])	Pre-emergence action against VIOTR in % (VIOTR [3]; dosage 20 g/ha)	Pre-emergence action against VIOTR in % (VIOTR [3]; dosage 80 g/ha)	Pre-emergence action against ECHCG in % (ECHCG [4])	Post-emergence action at 20 g/ha against AMARE in % (AMARE [6])	Pre-emergence action against AMARE in % (AMARE [7]; [19])	Pre-emergence action against AMARE in % (AMARE [7]; [20])	Pre-emergence action against ALOMY (herbicidal activity) (ALOMY [8])	Pre-emergence action against MATIN in % (MATIN; dosage 80 g/ha)	Pre-emergence action against ABUTH (herbicidal activity) (ABUTH [9])	Post-emergence action against PHBPU in % (PHBPU [10]; dosage 20 g/ha)	Pre-emergence action against VERPE in % (VERPE [11]; dosage 80 g/ha)	Pre-emergence action against ABUTH (herbicidal activity in percent) (ABUTH [9])	Post-emergence action against VIOTR in % (VIOTR [12]; 20 g/ha)	Post-emergence action against ALOMY in % (ALOMY [13])	Post-emergence action against ABUTH in % (ABUTH [14]; dosage 5 g/ha)	Post-emergence action against ABUTH in % (ABUTH [14]; dosage 20 g/ha)	Post-emergence action against VERPE in % (VERPE [15])	Pre-emergence action against AVEFA in % (AVEFA)	Pre-emergence action against MATIN in % (MATIN; dosage 20 g/ha)	also measured
Cn1nnnc1NC(=O)c1ccc(C(F)(F)F)c(C(=O)NCC2CCCO2)c1Cl (centres unmarked) [Example 1-141]	80%	80%	100%	90%	100%	100%	100%	90%	100%	–	–	–	–	–	–	–	–	–	–	–	Pre-emergence action against SETVI in % (SETVI [1]; dosage 20 g/ha): 90%; Pre-emergence action against SETVI in % (SETVI [1]; dosage 80 g/ha): 100%; Pre-emergence action against DIGSA in % (DIGSA [5]; dosage 20 g/ha): 90%; Pre-emergence action against DIGSA in % (DIGSA [5]; dosage 80 g/ha): 100%
CCn1nnnc1NC(=O)c1ccc(C(F)F)c(C(=O)NCC2CCCO2)c1Cl (centres unmarked) [Example 2-159]	90%	–	80%	90%	100%	100%	100%	80%	90%	100%	90%	80%	–	–	–	–	–	–	–	–	Post-emergence action against PHBPU in % (PHBPU [10]; dosage 5 g/ha): 80%
CCn1nnnc1NC(=O)c1ccc(Br)c(C(=O)NCCOC)c1Cl [Example 2-186]	–	–	90%	100%	100%	100%	100%	100%	100%	100%	–	90%	100%	80%	80%	80%	90%	80%	80%	80%	–
CCn1nnnc1NC(=O)c1ccc(C(F)F)c(C(=O)NCCOC)c1C [Example 2-346]	–	80%	80%	90%	100%	100%	100%	80%	90%	90%	80%	80%	80%	100%	80%	90%	90%	80%	80%	90%	Post-emergence action against VIOTR in % (VIOTR [12]; 5 g/ha): 80%; Post-emergence action against ECHCG in % (ECHCG [16]; dosage 5 g/ha): 80%; Post-emergence action against ECHCG in % (ECHCG [16]; dosage 20 g/ha): 90%
CCn1nnnc1NC(=O)c1ccc(OC)c(C(=O)NC2CC2)c1Cl [Example 2-354]	–	80%	100%	–	100%	100%	100%	90%	100%	100%	80%	80%	90%	100%	80%	90%	90%	90%	90%	100%	Pre-emergence action against VERPE in % (VERPE [11]; dosage 20 g/ha): 80%; Post-emergence action against SETVI in % (SETVI [17]): 90%
Cc1nnc(NC(=O)c2ccc(C(F)(F)F)c(C(=O)NCC3CC3)c2C2CC2)o1 [Example 6-228]	80%	–	–	90%	90%	–	100%	–	80%	90%	80%	–	–	–	–	–	–	–	–	–	Pre-emergence action against SETVI in % (SETVI [1]; dosage 80 g/ha): 80%; Pre-emergence action against DIGSA in % (DIGSA [5]; dosage 20 g/ha): 90%; Pre-emergence action against DIGSA in % (DIGSA [5]; dosage 80 g/ha): 100%; Post-emergence action against DIGSA (DIGSA [18]): 80%
